One data set concerns the target hCB1R (Homo sapiens, UniProt P21554). Put plainly: [3H]CP55,940 displacement assay on CHO membranes, CB1R. The following applies: for Ki: [3H]CP55,940 displacement; for hCB1R % displacement at 10 µM: [3H]CP55,940 displacement at 10 µM compound, ± SEM. It is filed as binding. On the set-up: host or cells: CHO-K1 (CHOK1hCB1_bgal).
For another data set, the target named is T1, human CB2R (Homo sapiens, UniProt P34972).
T1 construct: host or cells: CHO-K1 (CHOK1hCB2_bgal)
Put plainly: [3H]CP55,940 displacement assay on CHO membranes, CB2R. Particulars: for hCB2R % displacement at 10 µM: [3H]CP55,940 displacement at 10 µM compound, ± SEM; for Ki: [3H]CP55,940 displacement. It is filed as binding.

Data set [1] is described as follows: Photophysical characterization in PBS. It is filed as physicochemical. The following applies: PBS pH 7.4.
Setting [2] is: CHO membranes stably expressing human CB1R, means of three experiments, read-out: hCB1R Ki.
[3] abbreviates: CHO membranes stably expressing human CB2R, means of three experiments, read-out: hCB2R Ki.
The mark [4] stands for this setting: hCB2R Ki, CHO membranes stably expressing human CB2R, means of three experiments.
Where [5] appears, read: hCB1R Ki, CHO membranes stably expressing human CB1R, means of three experiments.
Where [6] appears, read: read-out: hCB1R Ki, CHO membranes stably expressing human CB1R, means of three experiments.
[7] abbreviates: read-out: hCB2R Ki, CHO membranes stably expressing human CB2R, means of three experiments.

Read-outs that look alike come from different tables or passages of the source.

T1 sequence (P34972 whole entry): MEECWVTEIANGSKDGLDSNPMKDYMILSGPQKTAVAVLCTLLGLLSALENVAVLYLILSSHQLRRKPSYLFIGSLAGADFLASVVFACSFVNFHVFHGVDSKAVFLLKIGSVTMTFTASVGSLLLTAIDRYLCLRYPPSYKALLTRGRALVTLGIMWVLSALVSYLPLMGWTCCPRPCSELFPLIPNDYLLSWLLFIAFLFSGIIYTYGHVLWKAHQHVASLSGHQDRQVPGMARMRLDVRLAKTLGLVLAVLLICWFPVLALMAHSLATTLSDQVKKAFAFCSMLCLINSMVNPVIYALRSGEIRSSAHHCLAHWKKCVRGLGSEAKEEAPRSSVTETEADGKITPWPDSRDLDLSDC
hCB1R, sequence (P21554 whole entry): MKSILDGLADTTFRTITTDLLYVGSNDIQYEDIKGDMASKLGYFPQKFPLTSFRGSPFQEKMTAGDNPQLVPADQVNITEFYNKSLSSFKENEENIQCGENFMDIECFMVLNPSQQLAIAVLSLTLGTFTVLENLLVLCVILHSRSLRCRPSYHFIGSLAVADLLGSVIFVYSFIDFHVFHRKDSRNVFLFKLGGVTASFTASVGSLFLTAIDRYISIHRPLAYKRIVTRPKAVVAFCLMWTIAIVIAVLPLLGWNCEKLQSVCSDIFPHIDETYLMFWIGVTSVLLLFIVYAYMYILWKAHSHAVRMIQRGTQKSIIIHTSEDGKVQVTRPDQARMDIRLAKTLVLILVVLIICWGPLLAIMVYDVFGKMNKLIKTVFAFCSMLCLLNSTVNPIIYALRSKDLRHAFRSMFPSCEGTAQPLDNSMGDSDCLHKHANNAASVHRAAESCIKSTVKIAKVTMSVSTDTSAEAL

Take `CCC(CC)(NC(=O)c1cc(-c2cc(C(F)(F)F)ccc2C(F)(F)F)n(C[C@H]2CCCO2)c1C)C(=O)NCCOCCNC(=O)OC(C)(C)C` [Compound 22a, tert-Butyl (R)-(2-(2-(2-(5-(2,5-Bis(trifluoromethyl)phenyl)-2-methyl-1-((tetrahydrofuran-2-yl)methyl)-1H-pyrrole-3-carboxamido)-2-ethylbutanamido)ethoxy)ethyl)carbamate]: the Ki on hCB1R (setting [2]) was 1420 nM; at human CB2R (setting [3]), greater than 10000 nM. The “hCB2R % displacement at 10 µM” value on human CB2R turned out to be 20 ± 3%.

In the case of `CCC(CC)(NC(=O)c1cc(-c2cc(C(F)(F)F)ccc2C(F)(F)F)n(C[C@H]2CCCO2)c1C)C(=O)NCCOCCOCCOCCNC(=O)OC(C)(C)C` [Compound 22c, tert-Butyl (R)-(1-(5-(2,5-Bis(trifluoromethyl)phenyl)-2-methyl-1-((tetrahydrofuran-2-yl)methyl)-1H-pyrrol-3-yl)-3,3-diethyl-1,4-dioxo-8,11,14-trioxa-2,5-diazahexadecan-16-yl)carbamate], the Ki at hCB1R (setting [2]) was 1220 nM; on human CB2R (setting [3]), greater than 10000 nM. The “hCB2R % displacement at 10 µM” value at human CB2R turned out to be 23 ± 5%.

Take `CCC(CC)(NC(=O)c1nn(-c2ccc(Cl)cc2Cl)c(-c2ccc(Cl)cc2)c1C)C(=O)NCCOCCNC(=O)OC(C)(C)C` [Compound 23a, tert-Butyl (2-(2-(2-(5-(4-Chlorophenyl)-1-(2,4-dichlorophenyl)-4-methyl-1H-pyrazole-3-carboxamido)-2-ethylbutanamido)ethoxy)ethyl)carbamate]: the Ki at hCB1R (hCB1R pKi ± SEM, CHO membranes) is 37.2 nM; on human CB2R (setting [4]), 1590 nM.

`CCC(CC)(NC(=O)c1nn(-c2ccc(Cl)cc2Cl)c(-c2ccc(Cl)cc2)c1C)C(=O)NCCOCCOCCOCCNC(=O)OC(C)(C)C` [Compound 23c, tert-Butyl (1-(5-(4-Chlorophenyl)-1-(2,4-dichlorophenyl)-4-methyl-1H-pyrazol-3-yl)-3,3-diethyl-1,4-dioxo-8,11,14-trioxa-2,5-diazahexadecan-16-yl)carbamate]: the figures for the Ki on hCB1R (setting [5]) and on human CB2R (setting [4]) were 397 nM and 2120 nM, respectively.

For the compound `CCC(CC)(NC(=O)c1nn(-c2ccc(Cl)cc2Cl)c(-c2ccc(Cl)cc2)c1C)C(=O)NCCOCCOCCOCCOCCNC(=O)OC(C)(C)C` [Compound 23d, tert-Butyl (1-(5-(4-Chlorophenyl)-1-(2,4-dichlorophenyl)-4-methyl-1H-pyrazol-3-yl)-3,3-diethyl-1,4-dioxo-8,11,14,17-tetraoxa-2,5-diazanonadecan-19-yl)carbamate], the Ki at hCB1R (setting [5]) was 603 nM; on human CB2R (setting [4]), 2120 nM.

Take `CCC(CC)(NC(=O)c1nn(-c2ccc(Cl)cc2Cl)c2c1CCCc1cc(Cl)ccc1-2)C(=O)NCCOCCOCCNC(=O)OC(C)(C)C` [Compound 24, tert-Butyl (1-(8-Chloro-1-(2,4-dichlorophenyl)-1,4,5,6-tetrahydrobenzo[6,7]cyclohepta[1,2-c]pyrazol-3-yl)-3,3-diethyl-1,4-dioxo-8,11-dioxa-2,5-diazatridecan-13-yl)carbamate]: the “hCB1R % displacement at 10 µM” value on hCB1R came out at 28 ± 3%. The Ki was greater than 10000 nM on hCB1R (setting [5]) and 776 nM at human CB2R (setting [4]).

`CCC(CC)(NC(=O)c1cnc(OCC2CC2)c(-c2ccc(F)cc2)c1)C(=O)NCCOCCOCCNC(=O)OC(C)(C)C` [Compound 25, tert-Butyl (1-(6-(Cyclopropylmethoxy)-5-(4-fluorophenyl)pyridin-3-yl)-3,3-diethyl-1,4-dioxo-8,11-dioxa-2,5-diazatridecan-13-yl)carbamate]: the Ki at hCB1R (setting [5]) is 3060 nM; on hCB1R (hCB1R pKi ± SEM, CHO membranes) it was 3020 nM; on human CB2R (setting [4]), 818 nM.

Regarding `CCC(CC)(NC(=O)c1cnc(OCCOC)c(-c2ccc(Cl)cc2)n1)C(=O)NCCOCCOCCNC(=O)OC(C)(C)C` [Compound 26, tert-Butyl (1-(6-(4-Chlorophenyl)-5-(2-methoxyethoxy)pyrazin-2-yl)-3,3-diethyl-1,4-dioxo-8,11-dioxa-2,5-diazatridecan-13-yl)carbamate], the “hCB1R % displacement at 10 µM” value at hCB1R amounted to 32 ± 6%. In addition, the Ki on hCB1R (setting [2]) is greater than 10000 nM; at human CB2R (setting [3]), 701 nM.

Take `CCC(CC)(NC(=O)c1nn(Cc2cccc(F)c2)c2ccccc12)C(=O)NCCOCCOCCNC(=O)OC(C)(C)C` [Compound 27, tert-Butyl (3,3-Diethyl-1-(1-(3-fluorobenzyl)-1H-indazol-3-yl)-1,4-dioxo-8,11-dioxa-2,5-diazatridecan-13-yl)carbamate]: the “hCB1R % displacement at 10 µM” value on hCB1R was determined as 48 ± 2%. Also, the results for the Ki at hCB1R (setting [5]) and at human CB2R (setting [4]) were greater than 10000 nM and 108 nM, respectively.

On to `CCC(CC)(NC(=O)c1nn(-c2ccc(Cl)cc2Cl)c(-c2ccc(Cl)cc2)c1C)C(=O)NCCOCCOCCNC(=O)c1ccc2c(c1)C(=O)OC21c2ccc(N(C)C)cc2Oc2cc(N(C)C)ccc21` [Compound 31], for which, in data set [1], the “Abs (absorbance maximum)” value came to 520 nm, the “Em (emission maximum)” value is 585 nm and the “QY (quantum yield)” value was found to be 17.50%. In addition, the “hCB1R % displacement at 10 µM” value at hCB1R is 37 ± 5%. Besides, the Ki at hCB1R (setting [6]) is greater than 10000 nM. Further, the “hCB2R % displacement at 10 µM” value on human CB2R turned out to be 32 ± 6%. Moreover, on human CB2R (setting [7]), the Ki was greater than 10000 nM.

Consider `CCC(CC)(NC(=O)c1nn(-c2ccc(Cl)cc2Cl)c2c1CCCc1cc(Cl)ccc1-2)C(=O)NCCOCCOCCNc1ccc([N+](=O)[O-])c2nonc12` [Compound 32, 8-Chloro-1-(2,4-dichlorophenyl)-N-(3-((2-(2-(2-((7-nitrobenzo[c][1,2,5]oxadiazol-4-yl)amino)ethoxy)ethoxy)ethyl)carbamoyl)pentan-3-yl)-1,4,5,6-tetrahydrobenzo[6,7]cyclohepta[1,2-c]pyrazole-3-carboxamide], for which, in data set [1], the “Abs (absorbance maximum)” value worked out at 485 nm, the “Em (emission maximum)” value was found to be 570 nm and the “QY (quantum yield)” value was 1.30%. On hCB1R, the “hCB1R % displacement at 10 µM” value is 35 ± 6%. The Ki at hCB1R (setting [5]) was greater than 10000 nM. Besides, at human CB2R (setting [4]), the Ki stood at 309 nM.

Consider `CCC(CC)(NC(=O)c1nn(-c2ccc(Cl)cc2Cl)c2c1CCCc1cc(Cl)ccc1-2)C(=O)NCCOCCOCCNC(=O)c1ccc2c(c1)C(=O)OC21c2ccc(N(C)C)cc2Oc2cc(N(C)C)ccc21` [Compound 33], for which, in data set [1], the “Abs (absorbance maximum)” value was 520 nm, the “Em (emission maximum)” value is listed as 585 nm and the “QY (quantum yield)” value turned out to be 11.10%. In addition, the “hCB1R % displacement at 10 µM” value on hCB1R is -5 ± 1%. The “Binding to CB1R (in words)” value on hCB1R (radioligand binding assay) was “did not bind”. Also, the Ki on hCB1R (setting [6]) is greater than 10000 nM. Also, the “hCB2R % displacement at 10 µM” value at human CB2R stood at 21 ± 3%. In addition, the “Binding to CB2R (in words)” value at human CB2R (radioligand binding assay) is listed as “did not bind”. Moreover, at human CB2R (setting [7]), the Ki was greater than 10000 nM.

Consider `CCC(CC)(NC(=O)c1cnc(OCCOC)c(-c2ccc(Cl)cc2)n1)C(=O)NCCOCCOCCNc1ccc([N+](=O)[O-])c2nonc12` [Compound 34, 6-(4-Chlorophenyl)-5-(2-methoxyethoxy)-N-(3-((2-(2-(2-((7-nitrobenzo[c][1,2,5]oxadiazol-4-yl)amino)ethoxy)ethoxy)ethyl)carbamoyl)pentan-3-yl)pyrazine-2-carboxamide], for which, in data set [1], the “Abs (absorbance maximum)” value was 480 nm, the “Em (emission maximum)” value amounted to 545 nm and the “QY (quantum yield)” value stood at 2.00%. For the same compound, the “hCB1R % displacement at 10 µM” value on hCB1R turned out to be 32 ± 6%. For the same compound, the Ki on hCB1R (setting [2]) is greater than 10000 nM. The Ki on human CB2R (CHO membranes, read-out: hCB2R pKi ± SEM (converted)) was 708 nM.

Values taken from PMC11284800 (Journal of Medicinal Chemistry, 2024).
